Target: T1, purified human HDAC6 (Homo sapiens, UniProt Q9UBN7)
T1 construct: purchased BPS Bioscience 5006
T1 sequence (Q9UBN7 1-1215): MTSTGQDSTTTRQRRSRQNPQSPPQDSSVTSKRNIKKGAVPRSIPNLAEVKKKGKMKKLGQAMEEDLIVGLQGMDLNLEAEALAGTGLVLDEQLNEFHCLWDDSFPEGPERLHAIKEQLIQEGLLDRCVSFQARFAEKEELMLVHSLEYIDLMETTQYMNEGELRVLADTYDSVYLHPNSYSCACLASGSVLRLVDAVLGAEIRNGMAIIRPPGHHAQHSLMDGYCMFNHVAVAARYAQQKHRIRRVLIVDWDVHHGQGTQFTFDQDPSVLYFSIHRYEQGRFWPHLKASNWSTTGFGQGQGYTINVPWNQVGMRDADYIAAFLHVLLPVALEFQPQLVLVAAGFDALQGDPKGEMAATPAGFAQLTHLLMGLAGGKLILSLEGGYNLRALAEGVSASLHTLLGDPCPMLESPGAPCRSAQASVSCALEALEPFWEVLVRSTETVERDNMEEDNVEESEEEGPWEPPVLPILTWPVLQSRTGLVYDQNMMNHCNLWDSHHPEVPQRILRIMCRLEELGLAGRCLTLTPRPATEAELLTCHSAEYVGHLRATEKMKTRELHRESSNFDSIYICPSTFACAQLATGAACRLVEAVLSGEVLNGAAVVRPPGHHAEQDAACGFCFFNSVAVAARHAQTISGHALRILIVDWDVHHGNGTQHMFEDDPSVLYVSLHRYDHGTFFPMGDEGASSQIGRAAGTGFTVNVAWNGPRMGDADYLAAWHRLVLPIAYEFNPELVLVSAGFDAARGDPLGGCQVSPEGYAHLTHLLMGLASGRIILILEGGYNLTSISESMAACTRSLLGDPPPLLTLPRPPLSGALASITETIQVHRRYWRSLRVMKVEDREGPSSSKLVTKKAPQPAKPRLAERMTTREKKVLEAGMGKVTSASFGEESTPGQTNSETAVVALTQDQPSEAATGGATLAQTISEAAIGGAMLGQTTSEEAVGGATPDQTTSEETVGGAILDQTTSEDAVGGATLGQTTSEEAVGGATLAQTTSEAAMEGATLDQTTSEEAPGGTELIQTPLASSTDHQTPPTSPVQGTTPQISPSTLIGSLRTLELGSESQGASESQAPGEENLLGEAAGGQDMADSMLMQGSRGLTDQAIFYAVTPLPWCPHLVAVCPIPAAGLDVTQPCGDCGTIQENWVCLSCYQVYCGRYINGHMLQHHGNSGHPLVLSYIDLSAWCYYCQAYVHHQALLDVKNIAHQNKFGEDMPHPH
Assay: HDAC6 Enzyme Assay
Assay type: biochemical
Details: compound concentration 0.37 μM, read-out: Percent Inhibition
Outline: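 Readout is AMC fluorescence (Ex 340 nm, Em 460 nm) after trypsin cleavage of the deacetylated Ac-Arg-Gly-Lys(Ac)-AMC product. Reaction: purified human HDAC6, compound or vehicle, 1 hour, 30° C, quenched by trichostatin A. Single-concentration percent inhibition or IC50 calculated versus DMSO-treated samples.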

| SMILES | inhibition at 0.37 µM |
| --- | --- |
| O=C(NO)c1ccc2ncn(CCc3cccc(-c4cccc(C(F)(F)F)c4)c3)c(=O)c2c1 [Compound I-311, N-hydroxy-4-oxo-3-{2-[3′-(trifluoromethyl)biphenyl-3-yl]ethyl}-3,4-dihydroquinazoline-6-carboxamide] | 91.6% |
| O=C(NO)c1ccc2ncn(CCc3cccc(-c4cccc(OC(F)(F)F)c4)c3)c(=O)c2c1 [Compound I-312, N-hydroxy-4-oxo-3-{2-[3′-(trifluoromethoxy)biphenyl-3-yl]ethyl}-3,4-dihydroquinazoline-6-carboxamide] | 76.2% |
| O=C(NO)c1ccc2ncn(CCc3cccc(-c4c(Cl)cccc4Cl)c3)c(=O)c2c1 [Compound I-313, 3-[2-(2′,6′-dichlorobiphenyl-3-yl)ethyl]-N-hydroxy-4-oxo-3,4-dihydroquinazoline-6-carboxamide] | 73.2% |
| O=C(NO)c1ccc2ncn(CCc3cccc(-c4ccccc4Cl)c3)c(=O)c2c1 [Compound I-314, 3-[2-(2′-chlorobiphenyl-3-yl)ethyl]-N-hydroxy-4-oxo-3,4-dihydroquinazoline-6-carboxamide] | 93.5% |
| CCN1CCC(CCn2ccc3ccc(C(=O)NO)cc3c2=O)CC1 [Compound I-315, 2-[2-(1-ethylpiperidin-4-yl)ethyl]-N-hydroxy-1-oxo-1,2-dihydroisoquinoline-7-carboxamide] | 90.1% |
| O=C(NO)c1ccc2ncn(CCc3cccc(-c4cccc(Cl)c4)c3)c(=O)c2c1 [Compound I-316, 3-[2-(3′-chlorobiphenyl-3-yl)ethyl]-N-hydroxy-4-oxo-3,4-dihydroquinazoline-6-carboxamide] | 87.7% |
| CC(C)(C)OC(=O)N1CCC(c2cccc(CCn3ccc4ccc(C(=O)NO)cc4c3=O)c2)CC1 [Compound I-317, tert-butyl 4-(3-{2-[7-[(hydroxyamino)carbonyl]-1-oxoisoquinolin-2(1H)-yl]ethyl}phenyl)piperidine-1-carboxylate] | 93.2% |
| O=C(NO)c1ccc2ncn(CCc3cccc(-c4csc5ccccc45)c3)c(=O)c2c1 [Compound I-318, 3-{2-[3-(1-benzothien-3-yl)phenyl]ethyl}-N-hydroxy-4-oxo-3,4-dihydroquinazoline-6-carboxamide] | 86.4% |
| Cn1cc(-c2cccc(Cn3ccc4ccc(C(=O)NO)cc4c3=O)c2)cn1 [Compound I-319, N-hydroxy-2-[3-(1-methyl-1H-pyrazol-4-yl)benzyl]-1-oxo-1,2-dihydroisoquinoline-7-carboxamide] | 98.6% |
| COc1ncccc1-c1cccc(CCn2cnc3ccc(C(=O)NO)cc3c2=O)c1 [Compound I-320, N-hydroxy-3-{2-[3-(2-methoxypyridin-3-yl)phenyl]ethyl}-4-oxo-3,4-dihydroquinazoline-6-carboxamide] | 90.4% |
| O=C(O)c1ccc(-c2cccc(CCn3cnc4ccc(C(=O)NO)cc4c3=O)c2)cc1 [Compound I-321, 3′-{2-[6-[(hydroxyamino)carbonyl]-4-oxoquinazolin-3(4H)-yl]ethyl}biphenyl-4-carboxylic acid] | 87.3% |
| Nc1cccc(-c2cccc(CCn3cnc4ccc(C(=O)NO)cc4c3=O)c2)c1 [Compound I-322, 3-[2-(3′-aminobiphenyl-3-yl)ethyl]-N-hydroxy-4-oxo-3,4-dihydroquinazoline-6-carboxamide] | 76.1% |
| O=C(NO)c1ccc2ncn(CCc3cccc(-c4ccn[nH]4)c3)c(=O)c2c1 [Compound I-323, N-hydroxy-4-oxo-3-{2-[3-(1H-pyrazol-5-yl)phenyl]ethyl}-3,4-dihydroquinazoline-6-carboxamide] | 94.6% |
| O=C(NO)c1ccc2ccn(CCc3cccc(C4CCNCC4)c3)c(=O)c2c1 [Compound I-324, N-hydroxy-1-oxo-2-[2-(3-piperidin-4-ylphenyl)ethyl]-1,2-dihydroisoquinoline-7-carboxamide] | 91.2% |
| O=C(NO)c1ccc2ncn(CCc3cccc(-c4ccccc4C(F)(F)F)c3)c(=O)c2c1 [Compound I-325, N-hydroxy-4-oxo-3-{2-[2′-(trifluoromethyl)biphenyl-3-yl]ethyl}-3,4-dihydroquinazoline-6-carboxamide] | 42.1% |
| CC(C)(C)C(=O)Nc1ncccc1-c1cccc(CCn2cnc3ccc(C(=O)NO)cc3c2=O)c1 [Compound I-327, 3-[2-(3-{2-[(2,2-dimethylpropanoyl)amino]pyridin-3-yl}phenyl)ethyl]-N-hydroxy-4-oxo-3,4-dihydroquinazoline-6-carboxamide] | 92% |
| O=C(NO)c1ccc2ccn(-c3cccc(-c4ccncc4)c3)c(=O)c2c1 [Compound I-328, N-hydroxy-1-oxo-2-(3-pyridin-4-ylphenyl)-1,2-dihydroisoquinoline-7-carboxamide] | 96.7% |
| COc1ccc(-c2cccc(CCn3cnc4ccc(C(=O)NO)cc4c3=O)c2)cn1 [Compound I-329, N-hydroxy-3-{2-[3-(6-methoxypyridin-3-yl)phenyl]ethyl}-4-oxo-3,4-dihydroquinazoline-6-carboxamide] | 92.6% |
| O=C(NO)c1ccc2ncn(CCc3cccc(-c4cccnc4)c3)c(=O)c2c1 [Compound I-331, N-hydroxy-4-oxo-3-[2-(3-pyridin-3-ylphenyl)ethyl]-3,4-dihydroquinazoline-6-carboxamide] | 87.2% |

The next lines start with the values.

| inhibition at 0.37 µM | SMILES |
| --- | --- |
| 90.4% | O=C(NO)c1ccc2ncn(CCNCc3cccc(-n4cccn4)c3)c(=O)c2c1 [Compound I-332, N-hydroxy-4-oxo-3-(2-{[3-(1H-pyrazol-1-yl)benzyl]amino}ethyl)-3,4-dihydroquinazoline-6-carboxamide] |
| 93.8% | CC(=O)Nc1ccc(-c2cccc(CCn3cnc4ccc(C(=O)NO)cc4c3=O)c2)cc1 [Compound I-334, 3-{2-[4′-(acetylamino)biphenyl-3-yl]ethyl}-N-hydroxy-4-oxo-3,4-dihydroquinazoline-6-carboxamide] |
| 90.5% | Cc1noc(C)c1-c1cccc(CCn2cnc3ccc(C(=O)NO)cc3c2=O)c1 [Compound I-336, 3-{2-[3-(3,5-dimethylisoxazol-4-yl)phenyl]ethyl}-N-hydroxy-4-oxo-3,4-dihydroquinazoline-6-carboxamide] |
| 57.7% | O=C(NO)c1ccc2c(CO)cn(Cc3ccccc3)c(=O)c2c1 [Compound I-337, 2-benzyl-N-hydroxy-4-(hydroxymethyl)-1-oxo-1,2-dihydroisoquinoline-7-carboxamide] |
| 96.8% | CC(C)C(c1ccccc1)n1cnc2ccc(C(=O)NO)cc2c1=O (centres unmarked) [Compound I-338, N-hydroxy-3-(2-methyl-1-phenylpropyl)-4-oxo-3,4-dihydroquinazoline-6-carboxamide] |
| 89.9% | COc1cccc(-c2cccc(CCn3cnc4ccc(C(=O)NO)cc4c3=O)c2)c1 [Compound I-339, N-hydroxy-3-[2-(3′-methoxybiphenyl-3-yl)ethyl]-4-oxo-3,4-dihydroquinazoline-6-carboxamide] |
| 94.9% | O=C(NO)c1ccc2ncn(CCC(c3ccccc3)C3CCCCC3)c(=O)c2c1 (centres unmarked) [Compound I-340, 3-(3-cyclohexyl-3-phenylpropyl)-N-hydroxy-4-oxo-3,4-dihydroquinazoline-6-carboxamide] |
| 94.5% | CS(=O)(=O)c1cccc(-c2cccc(CCn3cnc4ccc(C(=O)NO)cc4c3=O)c2)c1 [Compound I-341, N-hydroxy-3-{2-[3′-(methylsulfonyl)biphenyl-3-yl]ethyl}-4-oxo-3,4-dihydroquinazoline-6-carboxamide] |
| 69.5% | CC(C)c1cccc(-c2cccc(CCn3cnc4ccc(C(=O)NO)cc4c3=O)c2)c1 [Compound I-342, N-hydroxy-3-[2-(3′-isopropylbiphenyl-3-yl)ethyl]-4-oxo-3,4-dihydroquinazoline-6-carboxamide] |
| 91.3% | O=C(NO)c1ccc2ccn(CCC3CCNCC3)c(=O)c2c1 [Compound I-343, N-hydroxy-1-oxo-2-(2-piperidin-4-ylethyl)-1,2-dihydroisoquinoline-7-carboxamide] |

Source: patent publication US8765773B2, “Substituted hydroxamic acids and uses thereof” (Millennium Pharmaceuticals, Inc., priority 2010, dated 2014)
